Measured values from article PMC7717600, “Novel [(N-alkyl-3-indolylmethylene)hydrazono]oxindoles arrest cell cycle and induce cell apoptosis by inhibiting CDK2 and Bcl-2: synthesis, biological evaluation and in silico studies” (Journal of Enzyme Inhibition and Medicinal Chemistry, 2020).

What was measured:
Test in all cases: cells
Details in all cases: Homo sapiens
[1] = system: UACC-62
[2] = system: MDA-MB-468
[3] = system: IGROV1
[4] = system: U251
[5] = system: UACC-257

SMILES: CCCn1cc(C=NN=C2C(=O)Nc3ccc(C)cc32)c2ccccc21 [Compound 8a]
- GI50 ([1]; UACC-62): 2.24 µM
- CC50 ([1]; UACC-62, read-out: LC50): > 100 µM
- GI50 ([2]; MDA-MB-468): 1.69 µM
- CC50 ([2]; MDA-MB-468, read-out: LC50): 79.4 µM
- GI50 ([3]; IGROV-1): 3.38 µM
- CC50 ([3]; IGROV-1, read-out: LC50): > 100 µM
- GI50 ([4]; U-251): 3.51 µM
- CC50 ([4]; U-251, read-out: LC50): > 100 µM
- GI50 ([5]; UACC-257): 12.3 µM
- CC50 ([5]; UACC-257, read-out: LC50): > 100 µM
